For orientation: IC50 means the concentration at which inhibition is half-maximal.

Molecules are shown by their SMILES.

The test deals with T1, human recombinant CBL-b (human Biotin CBL-b recombinant protein a.a. 39-426) (Homo sapiens, UniProt Q13191).
T1 construct: human Biotin CBL-b recombinant protein a.a; 39-426; Biotin (biotinylated); made in house
T1 sequence (Q13191 39-426): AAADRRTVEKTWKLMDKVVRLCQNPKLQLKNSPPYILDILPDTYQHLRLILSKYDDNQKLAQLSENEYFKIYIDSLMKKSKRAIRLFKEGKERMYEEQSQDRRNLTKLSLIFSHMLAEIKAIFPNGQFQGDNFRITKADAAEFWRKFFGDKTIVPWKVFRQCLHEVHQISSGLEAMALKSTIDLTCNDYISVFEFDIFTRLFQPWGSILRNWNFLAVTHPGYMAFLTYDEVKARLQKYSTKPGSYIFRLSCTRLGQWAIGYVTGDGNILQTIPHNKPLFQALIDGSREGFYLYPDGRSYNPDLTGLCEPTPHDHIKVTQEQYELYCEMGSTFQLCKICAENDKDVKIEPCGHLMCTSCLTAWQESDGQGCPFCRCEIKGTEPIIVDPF
Kind of test: Biochemical assay for CBL-b inhibition (ligand displacement TR-FRET). Format: binding. The settings on record: 50 nM CBL-b, 0.3 μM Bodipy FL-Probe, read-out: IC50 (CBL-b inhibition, group). The procedure, abridged:
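Biotinylated CBL-b (a.a. 39-426, 50 nM final) pre-incubated with compound 60 min at RT in HEPES/NaCl/Triton/BSA/TCEP buffer, then Bodipy FL probe (0.3 μM final) 60 min, then terbium-streptavidin 60 min. TR-FRET read at 665/615 nm; IC50 and % max inhibition from sigmoidal fits.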
(In general: In TR-FRET formats the signal depends on donor and acceptor labels being close together.)
`Cn1cnnc1CC1(c2ccc3c(c2)C(=O)N(c2cc(CN4CCC(C(F)(F)F)CC4)cc(C(F)(F)F)n2)C3)COC1` [Compound 38, 6-(3-((4-Methyl-4H-1,2,4-triazol-3-yl)methyl)oxetan-3-yl)-2-(6-(trifluoro-methyl)-4-((4-(trifluoromethyl)piperidin-1-yl)methyl)pyridin-2-yl)isoindolin-1-one]: the IC50 was 300 to 5000 nM.
Take `Cc1cc(CNC(CC(C)(C)O)C2CC2)cc(N2Cc3ccc(-c4ccc(F)cc4-c4nncn4C)cc3C2=O)n1` (stereo not shown) [Compound 338, 2-(4-(((1-Cyclopropyl-3-hydroxy-3-methylbutyl)amino)methyl)-6-methylpyridin-2-yl)-6-(4-fluoro-2-(4-methyl-4H-1,2,4-triazol-3-yl)phenyl)isoindolin-1-one]: the 50% inhibitory concentration (IC50) is 80 to 300 nM.
Consider `Cc1cc(CNCC2CCCCN2)cc(N2Cc3ccc(-c4ccc(F)cc4-c4nncn4C)cc3C2=O)n1` (stereo not shown) [Compound 339, 6-(4-Fluoro-2-(4-methyl-4H-1,2,4-triazol-3-yl)phenyl)-2-(6-methyl-4-(((piperidin-2-ylmethyl)amino)methyl)pyridin-2-yl)isoindolin-1-one], for which the IC50 lay within 300 to 5000 nM.
Then `C[C@@H](NC[C@H]1CCCO1)c1cc(Cl)nc(N2Cc3ccc(C4(Cc5nncn5C)COC4)cc3C2=O)c1` (single isomer, unassigned) [Compound 220], with 80 to 300 nM; and `Cn1cnnc1CC1(c2ccc3c(c2)C(=O)N(c2cc(CN4CC5(COC5)C4)cc(C(F)(F)F)n2)C3)COC1` [Compound 55, 2-(4-((2-Oxa-6-azaspiro[3.3]heptan-6-yl)methyl)-6-(trifluoromethyl)pyridin-2-yl)-6-(3-((4-methyl-4H-1,2,4-triazol-3-yl)methyl)oxetan-3-yl)isoindolin-1-one], with 300 to 5000 nM; and `Cc1nc(CNCc2cc(Cl)nc(N3Cc4ccc(C5(Cc6nncn6C)COC5)cc4C3=O)c2)cs1` [Compound 129, 2-(6-Chloro-4-((((2-methylthiazol-4-yl)methyl)amino)methyl)-pyridin-2-yl)-6-(3-((4-methyl-4H-1,2,4-triazol-3-yl)methyl)oxetan-3-yl)isoindolin-1-one], with 80 to 300 nM.
Regarding `Cc1cc(CN(C)CC2CC2)cc(N2Cc3ccc(-c4ccc(F)cc4-c4nncn4C)cc3C2=O)n1` [Compound 312], the 50% inhibitory concentration (IC50) is below 80 nM.
In the case of `COC1(CNCc2cc(C)nc(N3Cc4ccc(-c5ccc(F)cc5-c5nncn5C)cc4C3=O)c2)CC1` [Compound 137, 6-(4-Fluoro-2-(4-methyl-4H-1,2,4-triazol-3-yl)phenyl)-2-(4-((((1-methoxycyclopropyl)methyl)amino)methyl)-6-methylpyridin-2-yl)isoindolin-1-one] it was 80 to 300 nM; in that of `CN(CCC(F)(F)F)Cc1cc(Cl)nc(N2Cc3ccc(C4(Cc5nncn5C)COC4)cc3C2=O)c1` [Compound 340, 2-(6-Chloro-4-((methyl(3,3,3-trifluoropropyl)amino)methyl)-pyridin-2-yl)-6-(3-((4-methyl-4H-1,2,4-triazol-3-yl)methyl)oxetan-3-yl)isoindolin-1-one], 80 to 300 nM.
As for `CC1CCC(C)N(Cc2cc(N3Cc4ccc(C5(Cc6nncn6C)COC5)cc4C3=O)nc(C(F)(F)F)c2)C1` (single isomer, unassigned) [Compound 142], the IC50 fell in the range of 300 to 5000 nM.
`Cn1cnnc1CC1(c2ccc3c(c2)C(=O)N(c2cc(CNCC4(F)CC4)cc(Cl)n2)C3)COC1` [Compound 130, 2-(6-Chloro-4-((((1-fluorocyclopropyl)methyl)amino)methyl)-pyridin-2-yl)-6-(3-((4-methyl-4H-1,2,4-triazol-3-yl)methyl)oxetan-3-yl)isoindolin-1-one]: the IC50 lay within 80 to 300 nM.
With `Cc1cc(CN[S+]([O-])C(C)(C)C)cc(N2Cc3ccc(-c4ccc(F)cc4-c4nncn4C)cc3C2=O)n1` (stereo not shown) [Compound 285], the concentration for half-maximal inhibition (IC50) lay within 300 to 5000 nM.
For `Cc1cc(CNCC2CC2)cc(N2Cc3ccc(-c4ccc(F)cc4-c4ncco4)cc3C2=O)n1` [Compound 287], the IC50 was in the range of 80 to 300 nM.

The record behind these values is US20260226073A1 (AURIGENE ONCOLOGY LIMITED, priority 2023, published 2026).
